What was measured:
Assay in all cases: relative viability (nuclei count vs DMSO), 5 days (fraction); higher = more cells survive
[1] = compound: CC(C)C[C@@H](C(=O)N[C@H](C(=O)OC1CCCC1)c1ccccc1)[C@H](O)C(=O)NO [Tosedostat] + Nc1nc2[nH]cc(CCc3ccc(C(=O)N[C@@H](CCC(=O)O)C(=O)O)cc3)c2c(=O)[nH]1 [Pemetrexed] (partner 0.2 µM)
Outline: (§1)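 Nuclei were stained with Hoechst during a one-step fixation (final 0.05% Triton X-100, 1% formaldehyde, 1 ug/ml Hoechst) carried out 5 days after dosing, then counted on 4× images. The cells, lung cancer lines in 1536-well plates, had been dosed by pin tool the day after seeding with one drug alone or a fixed anchor-drug dose plus five library-drug doses (not always all listed) in √10 steps. Relative viability is the nuclei count in treated wells divided by that in vehicle wells, and each value is the median of duplicate plates.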

[2] = compound: CC1=NN=C(O1)C2=NN=C(C=C2)N3CCC(CC3)OC4=C(C=CC(=C4)F)Cl + COc1cccc2cc(-c3nc([C@H]4CC[C@H](C(=O)O)CC4)n4ncnc(N)c34)[nH]c12 [OSI-027] (partner 0.5 µM)
Outline: as §1

[3] = compound: CC1=NN=C(O1)C2=NN=C(C=C2)N3CCC(CC3)OC4=C(C=CC(=C4)F)Cl + Nc1ncn([C@H]2C[C@H](O)[C@@H](CO)O2)c(=O)n1 [Decitabine] (partner 2 µM)
Outline: as §1

[4] = compound: CC1=NN=C(O1)C2=NN=C(C=C2)N3CCC(CC3)OC4=C(C=CC(=C4)F)Cl + O=C(c1cc(Cc2n[nH]c(=O)c3ccccc23)ccc1F)N1CCN(C(=O)C2CC2)CC1 [Olaparib] (partner 8 µM)
Outline: as §1

Row | Cell Line | relative viability ([1]; first compound 0.02 µM) | relative viability ([1]; first compound 0.06325 µM) | relative viability ([1]; first compound 0.2 µM) | relative viability ([1]; first compound 0.6325 µM) | relative viability ([1]; first compound 2 µM) | relative viability ([2]; first compound 0.253 µM) | relative viability ([2]; first compound 0.8 µM) | relative viability ([2]; first compound 2.53 µM) | relative viability ([2]; first compound 8 µM) | relative viability ([3]; first compound 0.253 µM) | relative viability ([3]; first compound 0.8 µM) | relative viability ([3]; first compound 2.53 µM) | relative viability ([3]; first compound 8 µM) | relative viability ([4]; first compound 0.253 µM) | relative viability ([4]; first compound 0.8 µM) | relative viability ([4]; first compound 2.53 µM) | relative viability ([4]; first compound 8 µM)
1 | NCI-H1755 | 0.521 | 0.43 | 0.362 | 0.484 | 0.416 | 0.609 | 0.625 | 0.669 | 0.597 | 0.524 | 0.54 | 0.605 | 0.503 | 0.65 | 0.616 | 0.657 | 0.562
2 | LC-2-ad | 0.299 | 0.303 | 0.289 | 0.277 | 0.251 | 0.689 | 0.678 | 0.632 | 0.682 | 0.335 | 0.314 | 0.381 | 0.348 | 0.297 | 0.257 | 0.255 | 0.238
3 | NCI-H1975 | 0.313 | 0.286 | 0.325 | 0.271 | 0.23 | – | 0.529 | 0.754 | 0.695 | 0.258 | 0.28 | 0.358 | 0.278 | 0.466 | 0.574 | 0.518 | 0.533
4 | ChaGo-K-1 | 0.269 | 0.257 | 0.275 | 0.267 | 0.275 | 0.506 | 0.422 | 0.597 | 0.398 | 0.392 | 0.465 | 0.391 | 0.374 | 0.298 | 0.255 | 0.354 | 0.28
5 | COR-L 105 | 1.16 | 0.915 | 1.01 | 0.857 | 0.894 | 0.702 | 0.687 | 0.908 | 0.769 | 0.676 | 0.592 | 0.667 | 0.638 | 0.556 | 0.703 | 0.819 | 0.901
6 | NCI-H2085 | – | 1.02 | 0.929 | 0.959 | 0.714 | 0.594 | – | 0.732 | 0.49 | 0.479 | 0.477 | 0.446 | 0.406 | 0.636 | 0.604 | 0.709 | 0.553
7 | Calu-6 | – | – | – | – | – | – | – | – | – | – | – | – | – | 0.381 | 0.389 | 0.385 | 0.384
8 | EBC-1 | – | – | – | – | – | – | – | – | – | – | – | – | – | 0.485 | 0.538 | 0.509 | 0.438
9 | IA-LM | – | – | – | – | – | – | – | – | – | – | – | – | – | 0.114 | 0.12 | 0.131 | 0.121
10 | NCI-H1299 | – | – | – | – | – | – | – | – | – | – | – | – | – | 0.741 | 0.722 | 0.717 | 0.664
11 | CAL-12T | 1.19 | 1.3 | 1.24 | 1.26 | 1.02 | 0.54 | 0.705 | 0.668 | 0.513 | – | – | – | – | 0.639 | 0.68 | 0.651 | 0.644
12 | NCI-H727 | – | – | – | – | – | 0.704 | 0.494 | 0.685 | 0.741 | 0.916 | 0.873 | 0.905 | 0.862 | 0.68 | 0.7 | 0.656 | 0.665
13 | NCI-H2228 | 0.328 | 0.32 | 0.317 | 0.338 | 0.256 | 0.41 | 0.448 | 0.302 | 0.468 | – | – | – | – | 0.461 | 0.291 | 0.702 | 0.637

Reference: the supplement of paper PMC10307832
